What was measured:
Assay in all cases: biochemical
[1] = target: T1, Recombinant human MMP-1 (Homo sapiens, UniProt P03956); conditions: fluorogenic MCA-peptide substrate, pH 7.5, room temperature
T1 construct: made in house; host or cells: transfected HT-1080 cells
T1 sequence (P03956 100-469): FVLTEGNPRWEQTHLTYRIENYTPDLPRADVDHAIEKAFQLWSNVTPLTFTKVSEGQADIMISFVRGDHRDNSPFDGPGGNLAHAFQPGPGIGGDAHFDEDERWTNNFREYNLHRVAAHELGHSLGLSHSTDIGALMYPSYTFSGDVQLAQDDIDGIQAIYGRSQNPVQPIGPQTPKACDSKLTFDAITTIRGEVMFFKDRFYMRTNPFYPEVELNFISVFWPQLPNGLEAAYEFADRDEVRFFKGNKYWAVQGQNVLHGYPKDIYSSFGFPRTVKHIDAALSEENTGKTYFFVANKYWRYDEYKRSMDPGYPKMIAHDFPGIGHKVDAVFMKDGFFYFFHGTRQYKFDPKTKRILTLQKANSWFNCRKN
Description: (§1) Recombinant human MMP-1, MMP-2, MMP-9, MMP-13, and were used in this assay. These enzymes were prepared in the Assignee's es following usual laboratory procedures. Specifics for preparing and e enzymes can be found in the scientific literature describing these See, e.g., Enzyme Nomenclature (Academic Press, San Diego, Calif., d the citations therein).
The MMP-1 was obtained from MMP-1 expressing transfected HT-1080 cells provided by Dr. Harold Welgus of Washington University in St. Louis, Mo. The MMP-1 was activated using 4-aminophenylmercuric acetate (APMA), and then purified over a hydroxamic acid column.
(§2) The enzyme substrate was a methoxycoumarin-containing polypeptide having the following sequence:
(§3) MCA-ProLeuGlyLeuDpaAlaArgNH2
(§4) Here, “MCA” is methoxycoumarin and “Dpa” is 3-(2,4-dinitrophenyl)-L-2,3-diaminopropionyl alanine.
(§5) These solutions were then compared to a control (which contained equal amount of DMSO/buffer solution, but no hydroxamate compound) using Microfluor™ White Plates (Dynatech, Chantilly, Va.). Specifically, The MMPs were activated with APMA or trypsin. […] The control likewise was incubated at room temperature in separate plates with the MMP and 4 uM of the MMP substrate. […] Inhibition was measured as a reduction in fluorescent intensity as a function of inhibitor concentration using a Perkin Elmer (Norwalk, Conn.) L550 plate reader. The IC50's were then calculated from these measurements.

[2] = target: T2, Recombinant human MMP-2 (Homo sapiens, UniProt P08253); conditions: fluorogenic MCA-peptide substrate, pH 7.5, room temperature; read-out: MMP-2 IC50
T2 construct: made in house
T2 sequence (P08253 110-660): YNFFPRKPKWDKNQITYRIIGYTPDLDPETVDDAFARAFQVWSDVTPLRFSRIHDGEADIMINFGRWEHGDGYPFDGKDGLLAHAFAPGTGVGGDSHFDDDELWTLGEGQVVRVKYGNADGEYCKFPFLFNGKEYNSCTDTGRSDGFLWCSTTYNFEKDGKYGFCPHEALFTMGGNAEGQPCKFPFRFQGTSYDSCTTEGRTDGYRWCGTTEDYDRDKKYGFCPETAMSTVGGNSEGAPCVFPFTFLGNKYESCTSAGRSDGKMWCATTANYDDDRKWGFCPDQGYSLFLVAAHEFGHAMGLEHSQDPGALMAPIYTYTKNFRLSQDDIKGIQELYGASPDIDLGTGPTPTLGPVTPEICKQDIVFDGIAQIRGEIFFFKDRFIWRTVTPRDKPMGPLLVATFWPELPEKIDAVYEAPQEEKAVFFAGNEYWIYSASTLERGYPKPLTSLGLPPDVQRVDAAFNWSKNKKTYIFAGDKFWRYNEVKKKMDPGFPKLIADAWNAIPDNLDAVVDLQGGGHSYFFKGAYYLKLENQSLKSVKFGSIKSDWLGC
Description: as §1
The MMP-2 was obtained from MMP-2 expressing transfected cells provided by Dr. Gregory Goldberg of Washington University.
as §2, §3, §4, §5

[3] = target: T3, Recombinant human MMP-13 (Homo sapiens, UniProt P45452); conditions: fluorogenic MCA-peptide substrate, pH 7.5, room temperature; read-out: MMP-13 IC50
T3 construct: made in house; host or cells: baculovirus / insect cells
Description: as §1
The expressed proenzyme was first purified over a heparin agarose column, and then over a chelating zinc chloride column. The proenzyme was then activated by APMA for use in the assay.
as §2, §3, §4, §5

SMILES	IC50 [1] [nM]	IC50 [2] [nM]	IC50 [3] [nM]
COCCN1CCC(C(=O)NO)(S(=O)(=O)c2ccc(N3CCC(C(=O)c4ccc(Cl)cc4)CC3)cc2)CC1 [Example 119]	> 10000	200	1
CCCc1ccc(C(=O)C2CCN(c3ccc(S(=O)(=O)C4(C(=O)NO)CCN(CCOC)CC4)cc3)CC2)cc1 [Example 120]	> 10000	126	0.85
CCCCc1ccc(C(=O)C2CCN(c3ccc(S(=O)(=O)C4(C(=O)NO)CCN(CCOC)CC4)cc3)CC2)s1 [Example 121]	> 10000	58.8	0.1
O=C(c1ccc(Cl)cc1)C1CCN(c2ccc(S(=O)(=O)C3(C(=O)NO)CCN(CC4CC4)CC3)cc2)CC1 [Example 123]	> 10000	46.3	0.1
C#CCN1CCC(C(=O)NO)(S(=O)(=O)c2ccc(N3CCC(C(=O)c4ccc(OC)cc4)CC3)cc2)CC1 [Example 151]	> 10000	128	1.3
C#CCN1CCC(C(=O)NO)(S(=O)(=O)c2ccc(N3CCC(C(=O)c4ccc(C)cc4)CC3)cc2)CC1 [Example 152]	> 10000	56.3	0.6
C#CCN1CCC(C(=O)NO)(S(=O)(=O)c2ccc(N3CCC(C(=O)c4ccc(Cl)cc4)CC3)cc2)CC1 [Example 153]	> 10000	30.6	0.2
C#CCN1CCC(C(=O)NO)(S(=O)(=O)c2ccc(N3CCC(C(=O)c4cccc(C)c4)CC3)cc2)CC1 [Example 154]	> 10000	176	2.4
C#CCN1CCC(C(=O)NO)(S(=O)(=O)c2ccc(N3CCC(C(=O)c4cccc(OC)c4)CC3)cc2)CC1 [Example 155]	> 10000	43.8	1.4
COCCN1CCC(C(=O)NO)(S(=O)(=O)c2ccc(N3CCC(C(=O)c4ccc(OC)cc4)CC3)cc2)CC1 [Example 156]	> 10000	1340	0.7
C=CCN1CCC(C(=O)NO)(S(=O)(=O)c2ccc(N3CCC(C(=O)c4ccc(C)c(C)c4)CC3)cc2)CC1 [Example 158]	> 10000	218	2.4
C=CCN1CCC(C(=O)NO)(S(=O)(=O)c2ccc(N3CCC(C(=O)c4ccc5ccccc5c4)CC3)cc2)CC1 [Example 160]	> 10000	198	0.4
C#CCN1CCC(C(=O)NO)(S(=O)(=O)c2ccc(N3CCC(C(=O)c4ccc(OC(C)C)c(C)c4)CC3)cc2)CC1 [Example 162]	> 10000	495	2.7
Cc1ccc(C(=O)C2CCN(c3ccc(S(=O)(=O)C4(C(=O)NO)CCN(S(C)(=O)=O)CC4)cc3)CC2)cc1C [Example 164]	> 10000	942	5.4
COCCN1CCC(C(=O)NO)(S(=O)(=O)c2ccc(N3CCC(c4ccc(C)cc4)CC3)cc2)CC1 [Example 269]	> 10000	–	1.4
O=C(NO)C1(S(=O)(=O)c2ccc(N3CCC(c4ccc(Cl)cc4)CC3)cc2)CCN(CC2CC2)CC1 [Example 274]	> 10000	–	2.1
O=C(c1ccc(CN2CCCC2)cc1)C1CCN(c2ccc(S(=O)(=O)C3(C(=O)NO)CCOCC3)cc2)CC1 [Example 385]	–	34.6	3.2
O=C(Cc1ccccc1)C1CCN(c2ccc(S(=O)(=O)C3(C(=O)NO)CCOCC3)cc2)CC1 [Example 386]	–	1900	15.2
O=C(Cc1cccs1)C1CCN(c2ccc(S(=O)(=O)C3(C(=O)NO)CCOCC3)cc2)CC1 [Example 387]	–	344	4.5

From patent US20040209914A1, “Aromatic sulfone hydroxamic acids and their use as protease inhibitors” (priority 2000, published 2004)
